“And” between values parts separate entries of the source, which are not always exact repeats. Equal entries are not always repeated.
Columns and labels:
[1] = tested on: AAV-αSyn-induced male mice; assay: Rotarod, AAV-αSyn-induced PD model mice; type: in vivo, mouse; settings: αSynWT and αSynA53T mice; CQ 40, 4A7C-301 5 mg/kg/day i.p.
Description: (§1) Adeno-associated viruses (AAVs) expressing GFP only or αSyn (wild-type or A53T) were kindly provided by Dr. Yoon Seong Kim from the University of Central Florida. Recombinant AAV vectors were produced using modified pAAV-IRES-hrGFP (Agilent) to express wild-type and mutant human αSyn under control of the CMV promoter. Viral particles (AAV2) were produced at the University of Iowa Viral Vector Core according to standard operating procedures (https://medicine.uiowa.edu/vectorcore/). […] AAV vectors were delivered into the substantia nigra unilaterally by stereotaxic surgery.
Mice were pre-trained on an automated 5-lane rotarod unit (10 rpm, 3 min) for 2 days and the baseline was measured (10 rpm, 90 sec) before the rotarod test (3 days before the MPTP injection or the first rotarod test at week 2). Rotarod measurements were performed using an accelerating protocol, accelerated smoothly from 2 to 30 rpm for 5 min. Time on the rotating rod was measured automatically by placing a trip switch under the floor beneath the rotating drum.

[2] = tested on: AAV-αSyn-induced male mice; assay: pS129 αSyn+ cells in SNpc, AAV-αSyn-induced mice; type: in vivo, mouse
Description: as §1
(§2) Images were acquired using a KEYENCE microscope and quantified as the number or optical density of immunoreactive cells using ImageJ software.
(§3) The numbers of TH^+ DA neurons, NeuN^+ neurons, pS129 αSyn^+ cells in the SN and Iba-1^+ microglia in the SN and striatum were stereologically counted in six coronal sections (30 µm thickness) taken every 6th section (180 µm intervals) for each brain. The boundaries of the SN and striatum were delimited at low magnification (4X) to estimate each total area. Immunoreactive cells were counted with images taken at high magnification (×40) by a single blinded investigator. The group mean of the total number of immunoreactive cells from each brain was transformed as percentage of the number in the control group (%). For AAV-αSyn-induced mice, the group mean of the total number of cells in the ipsilateral side was transformed as a percentage of that observed in the contralateral side.

MPTP-induced male mice = assay: IHC of Iba-1+ microglia in STR and SNpc, MPTP-induced mice; type: in vivo, mouse; settings: for Iba-1+ cells in STR (% of control): Figure 4m; for Iba-1+ cells in STR (% of control) / Iba-1+ cells in SNpc (% of control): MPTP-induced mice, individual animal values; for Iba-1+ cells in SNpc (% of control): Figure 4n
Method: MPTP (Sigma-Aldrich) was intraperitoneally (i.p.) injected (30 mg/kg) for 5 days (Day 1-5). […] To test dyskinetic involuntary behavior, an L-DOPA injected group was included, which received 50 mg/kg of L-DOPA and 15 mg/kg of benserazide (Sigma-Aldrich) (i.p.) for 16 days (Day 1–16). All compounds were administered 6 h post-MPTP injection to avoid any effect of compounds on the MPTP metabolism in the brain. Motor and non-motor related behavior tests were performed on the following days as described in Fig. 4a in an assessor- and observer-blinded fashion. Pre-training and baseline setup for motor-related behaviors were performed 3 days prior to the injections. Mice were sacrificed and subjected to immunohistochemistry. Mice were housed at the Animal Care Facilities of McLean Hospital under a 12-h light/12-h dark cycle, ambient temperature and humidity. Animals were handled in accordance with McLean Hospital’s Institutional Animal Care and Use Committee (Protocol #: 2015N000002) and followed National Institutes of Health guidelines.
as §2, §3

HeLa cells [3] = assay: Autophagic flux, Western blot LC3B and p62, HeLa cells; type: cell-based; settings: for autophagic flux (in words): HeLa; for Relative LC3B-II experession (normalized to β-actin): Supplementary Figure S7f; for Relative p62 experession (normalized to β-actin): Supplementary Figure S7g; for Relative LC3B-II expression (normalized to β-actin): Supplementary Figure S7i; for Relative p62 expression (normalized to β-actin): Supplementary Figure S7j
Method: Experiments were confirmed by duplicate measurements of the same sample. Quantification of immunoreactive bands was performed using ImageJ software (NIH, Bethesda, MD, USA) and expressed as a relative ratio against β-actin.
The band intensities were quantified using ImageJ and normalized against β-actin.

N27-A cells = assay: Cell viability, MTT reduction, MPP+-treated N27-A cells; type: cell-based, rat; settings: Fig. 2a, CQ 100 µM, 4A7C-301 1 µM
HeLa cells [4] = assay: Autophagolysosome (APL) formation assay, mRFP-GFP-LC3, HeLa cells; type: cell-based; settings: CQ 20 µM, 4A7C-301 1 µM; for percentage of red dots among total LC3 dots: EBSS 6 h; for APL formation / autophagy (in words): EBSS, BafA1 10 nM
Method: Nurr1 transactivity was normalized to β-galactosidase activity.
HeLa and N27-A cells were transfected with tandem mRFP-GFP-LC3 (Addgene) plasmid using Lipofectamine 2000 (Invitrogen) in 24-well plates. After 24 h, cells were incubated in starvation medium (Earle’s Balanced Salt Solution, EBSS; Lonza) containing bafilomycin A1 (BafA1, 10 nM), CQ (20 µM), or 4A7C-301 (1 µM) for 6 h and then fixed with 4% formaldehyde for fluorescence detection. Images were taken using a KEYENCE microscope and red (mRFP) LC3 dots and yellow (mRFP+GFP) LC3 dots were counted from three independent wells for each treatment group. 10 cells were randomly selected and counted from each well and a total of 30 cells were analyzed for each treatment group in both HeLa and N27-A cells.

MN9D cells = assay: Dopaminergic gene expression (TH, DAT, AADC, VMAT2, c-Ret), qRT-PCR, MN9D cells with MPP+; type: cell-based, mouse; settings: for dopaminergic gene expression (in words): MN9D, decreased by MPP+; for Relative TH mRNA expression (fold of Cont.): Fig. S5a; for Relative DAT mRNA expression (fold of Cont.): Fig. S5b; for Relative AADC mRNA expression (fold of Cont.): Fig. S5c; for Relative c-Ret mRNA expression (fold of Cont.): Fig. S5e; for Relative VMAT mRNA expression (fold of Cont.): Fig. S5d
Method: Total RNA was extracted using the GeneJET RNA Purification Kit (Thermo Fisher Scientific) and 100 ng of RNA was subjected to cDNA synthesis using Invitrogen Superscript cDNA Synthesis Kit (Invitrogen) according to the manufacturer’s protocol. qRT-PCR was performed using a CFX Connect Real-Time System (Bio-Rad) in a 20 μl volume mixture containing 2X SsoAdvanced Universal SYBR Green Supermix (Bio-Rad), 100 ng/μl of forward and reverse primers, and 1 μl of cDNA sample. Gene expression levels were quantified by the 2^∆∆CT method (Ct of target gene—Ct of glyceraldehyde-3-phosphate dehydrogenase (GAPDH). The following primers were used for qRT-PCR: TH forward: 5′-[…]-3′, reverse: 5′-[…]-3′; DAT forward: 5′-[…]-3′, reverse: 5′-[…]-3′; AADC forward: 5′-[…]-3′, reverse: 5′-[…]-3′; VMAT2 forward: 5′-[…]-3′, reverse: 5′-[…]-3′; c-Ret forward: 5′-[…]-3′, reverse: 5′-[…]-3′; TNFα forward: 5′-[…]-3′; reverse: 5′-[…]-3′; GAPDH, forward 5′-[…]-3′, reverse 5′-[…]-3′.

CCN(CC)CCCC(C)Nc1ccnc2cc(Cl)ccc12 (centres unmarked) [CQ, chloroquine]
motor deficits, rotarod (latency to fall) (in words) [1]: partial recovery | phosphorylated αSyn (αSynS129) in SN (in words) ([2]; αSynWT-mice): significantly diminished | Iba-1+ cells in STR (% of control) (MPTP-induced male mice): 156.51 % of control and 147.74 % of control and 143.13 % of control and 144.76 % of control and 151.54 % of control and 162.57 % of control and 147.11 % of control and 149.46 % of control | Iba-1+ cells in SNpc (% of control) (MPTP-induced male mice): 165.17 % of control and 275.28 % of control and 277.25 % of control and 239.89 % of control and 248.74 % of control and 269.38 % of control and 278.23 % of control | autophagic flux (in words) (HeLa cells [3]; LC3B-II and p62): failed to terminate | MTT reduction (%) (N27-A cells; Control): 57.8947% and 66.3158% and 61.0526% and 65.2632% | MTT reduction (%) (N27-A cells; Nurr1 KD): 34.0206% and 28.866% and 35.0515% and 27.8351% | MTT reduction (%) (N27-A cells; Nurr1 OE): 79.3814% and 82.4742% and 84.5361% and 87.6289% | percentage of red dots among total LC3 dots (HeLa cells [4]): 21.7% | APL formation / autophagy (in words) (HeLa cells [4]): significantly inhibited | dopaminergic gene expression (in words) (MN9D cells): significantly rescued

CCN1CCN(c2cc(N3CCN(CC)CC3)nc(NCCNc3ccnc4cc(Cl)ccc34)n2)CC1 [4A7C-301, N^1-(4,6-bis(4-ethylpiperazin-1-yl)pyrimidin-2-yl)-N^2-(7-chloroquinolin-4-yl)ethane-1,2-diamine]
motor deficits, rotarod (latency to fall) (in words) [1]: improved motor deficits | phosphorylated αSyn (αSynS129) in SN (in words) ([2]; αSynA53T-mice): significantly reduced | phosphorylated αSyn (αSynS129) in SN (in words) ([2]; αSynWT-mice): significantly diminished | Iba-1+ cells in STR (% of control) (MPTP-induced male mice): 125.5 % of control and 139.6 % of control and 120.61 % of control and 117.09 % of control and 138.52 % of control and 80.29 % of control and 135.9 % of control | Iba-1+ cells in SNpc (% of control) (MPTP-induced male mice): 160.25 % of control and 167.13 % of control and 152.39 % of control and 127.81 % of control and 217.28 % of control and 189.75 % of control and 198.6 % of control | Iba-1+ microglia in STR and SN (in words) (MPTP-induced male mice; MPTP mice): markedly reduced | autophagic flux (in words) (HeLa cells [3]; 10-times higher concentrations than 1 µM): did not inhibit autophagy | autophagic flux (in words) (HeLa cells [3]; LC3B-II and p62): completed | Relative LC3B-II experession (normalized to β-actin) (HeLa cells [3]; time 0h): 0.384 and 0.423 and 0.339 | Relative LC3B-II experession (normalized to β-actin) (HeLa cells [3]; time 0.5h): 0.455 and 0.539 and 0.396 | Relative LC3B-II experession (normalized to β-actin) (HeLa cells [3]; time 1h): 0.533 and 0.561 and 0.521 | Relative LC3B-II experession (normalized to β-actin) (HeLa cells [3]; time 2h): 0.526 and 0.509 and 0.466 | Relative LC3B-II experession (normalized to β-actin) (HeLa cells [3]; time 4h): 0.415 and 0.449 and 0.331 | Relative p62 experession (normalized to β-actin) (HeLa cells [3]; time 0h): 0.809 and 0.904 and 0.909 | Relative p62 experession (normalized to β-actin) (HeLa cells [3]; time 0.5h): 0.889 and 0.886 and 0.829 | Relative p62 experession (normalized to β-actin) (HeLa cells [3]; time 1h): 0.800 and 0.736 and 0.720 | Relative p62 experession (normalized to β-actin) (HeLa cells [3]; time 2h): 0.670 and 0.672 and 0.687 | Relative p62 experession (normalized to β-actin) (HeLa cells [3]; time 4h): 0.552 and 0.570 | Relative LC3B-II expression (normalized to β-actin) (HeLa cells [3]; Conc. 1 µM): 0.5044 and 0.5121 and 0.5349 | Relative LC3B-II expression (normalized to β-actin) (HeLa cells [3]; Conc. 10 µM): 0.4913 and 0.4289 and 0.4955 | Relative p62 expression (normalized to β-actin) (HeLa cells [3]; Conc. 1 µM): 0.2532 and 0.2036 and 0.1875 | Relative p62 expression (normalized to β-actin) (HeLa cells [3]; Conc. 10 µM): 0.2002 and 0.2111 and 0.1727 | MTT reduction (%) (N27-A cells; Control): 65.2632% and 62.1053% and 64.2105% and 61.0526% | MTT reduction (%) (N27-A cells; Nurr1 KD): 30.9278% and 29.8969% and 34.0206% | MTT reduction (%) (N27-A cells; Nurr1 OE): 86.5979% and 95.8763% and 87.6289% and 83.5052% | percentage of red dots among total LC3 dots (HeLa cells [4]): 63.9% | APL formation / autophagy (in words) (HeLa cells [4]): did not inhibit | Relative TH mRNA expression (fold of Cont.) (MN9D cells; w/ MPP+): 1.331 fold of Cont. and 1.238 fold of Cont. and 1.4297 fold of Cont. | Relative TH mRNA expression (fold of Cont.) (MN9D cells; w/o MPP+): 2.626 fold of Cont. and 3.055 fold of Cont. and 2.8325 fold of Cont. | Relative DAT mRNA expression (fold of Cont.) (MN9D cells; w/ MPP+): 1.51 fold of Cont. and 1.43 fold of Cont. and 1.594 fold of Cont. | Relative DAT mRNA expression (fold of Cont.) (MN9D cells; w/o MPP+): 3.527 fold of Cont. and 3.949 fold of Cont. and 3.732 fold of Cont. | Relative AADC mRNA expression (fold of Cont.) (MN9D cells; w/ MPP+): 1.175 fold of Cont. and 1.144 fold of Cont. and 1.206 fold of Cont. | Relative AADC mRNA expression (fold of Cont.) (MN9D cells; w/o MPP+): 1.767 fold of Cont. and 1.615 fold of Cont. and 1.689 fold of Cont. | Relative c-Ret mRNA expression (fold of Cont.) (MN9D cells; w/ MPP+): 0.9952 fold of Cont. and 1.121 fold of Cont. and 0.8833 fold of Cont. | Relative c-Ret mRNA expression (fold of Cont.) (MN9D cells; w/o MPP+): 1.827 fold of Cont. and 2.268 fold of Cont. and 2.036 fold of Cont. | Relative VMAT mRNA expression (fold of Cont.) (MN9D cells; w/ MPP+): 1.0229 fold of Cont. and 0.9814 fold of Cont. and 1.066 fold of Cont. | Relative VMAT mRNA expression (fold of Cont.) (MN9D cells; w/o MPP+): 2.085 fold of Cont. and 1.956 fold of Cont. and 2.019 fold of Cont. | dopaminergic gene expression (in words) (MN9D cells): significantly rescued | concentration for similar effect, times lower than CQ (MN9D cells; dopaminergic gene expression, MN9D and VM primary cells): 20–40 times

Source: paper PMC10354055, “An optimized Nurr1 agonist provides disease-modifying effects in Parkinson’s disease models” (Nature Communications, 2023)
